This passage reports IC50 results from patent US8778951B2, “Heteroaryl compounds and their uses” (Novartis AG, priority 2009, dated 2014).

As usually defined, the pIC50 is the negative decadic logarithm of the IC50, by convention in mol/L.

pIC50: −log10 of the molar value.

For the assay, the target named is Cdk9/cyclinT1 (Homo sapiens (Human), UniProt P50750). The experiment in a line: Cdk9/CyclinT1 IMAP Protocol (fluorescence polarization kinase assay). The format is biochemical. As to conditions: Table 2; generated using one of the two Cdk9/cyclinT1 assays (IMAP or Alpha Screen), not specified which; unit inferred. In a few lines: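 Reaction used 4 nM Cdk9/cyclinT1, 100 nM 5TAMRA-cdk7tide peptide and 6 uM ATP in 100 mM Tris pH 7.2 with MgCl2, 0.01% Tween-20, 1 mM DTT and 2.5% DMSO, running 4.5 h. Phosphopeptide was captured by IMAP binding reagent for >1 h, then read by fluorescence polarization (ex 531/em 595 nm).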
Cdk9/cyclinT1, sequence (P50750 whole entry): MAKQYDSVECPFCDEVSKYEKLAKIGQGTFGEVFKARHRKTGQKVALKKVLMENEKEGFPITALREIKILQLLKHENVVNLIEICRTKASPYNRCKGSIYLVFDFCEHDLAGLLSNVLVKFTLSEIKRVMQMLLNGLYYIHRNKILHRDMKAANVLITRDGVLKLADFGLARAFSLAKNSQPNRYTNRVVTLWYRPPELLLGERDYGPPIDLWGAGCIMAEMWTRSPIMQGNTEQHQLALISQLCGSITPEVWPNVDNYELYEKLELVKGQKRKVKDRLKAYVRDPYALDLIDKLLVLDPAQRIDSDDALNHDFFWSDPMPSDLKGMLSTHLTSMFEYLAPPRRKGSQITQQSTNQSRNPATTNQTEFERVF
Cdk9/cyclinT1, sequence (O60563 whole entry partner): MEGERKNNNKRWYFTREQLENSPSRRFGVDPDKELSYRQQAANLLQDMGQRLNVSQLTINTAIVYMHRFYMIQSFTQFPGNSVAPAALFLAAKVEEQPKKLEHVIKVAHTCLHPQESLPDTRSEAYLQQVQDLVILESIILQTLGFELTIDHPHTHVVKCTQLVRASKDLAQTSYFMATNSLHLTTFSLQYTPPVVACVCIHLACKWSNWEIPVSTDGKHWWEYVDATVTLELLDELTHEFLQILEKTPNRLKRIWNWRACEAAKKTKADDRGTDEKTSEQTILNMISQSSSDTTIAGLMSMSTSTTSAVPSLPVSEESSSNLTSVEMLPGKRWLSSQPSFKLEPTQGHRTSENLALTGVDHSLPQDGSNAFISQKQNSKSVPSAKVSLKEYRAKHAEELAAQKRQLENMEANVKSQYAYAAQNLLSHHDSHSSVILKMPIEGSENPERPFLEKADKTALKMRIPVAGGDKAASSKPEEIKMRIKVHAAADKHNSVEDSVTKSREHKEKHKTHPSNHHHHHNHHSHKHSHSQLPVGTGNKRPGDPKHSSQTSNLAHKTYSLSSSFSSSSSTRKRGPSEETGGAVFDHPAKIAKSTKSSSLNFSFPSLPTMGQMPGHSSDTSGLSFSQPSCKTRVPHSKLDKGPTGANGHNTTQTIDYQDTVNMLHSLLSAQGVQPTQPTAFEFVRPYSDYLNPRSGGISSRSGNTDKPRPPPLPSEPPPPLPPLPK
For the compound `CC(C)(C)OC(=O)N1CCC(Nc2cc(-c3cccc(NCc4cccc(F)c4)n3)c(Cl)cn2)CC1` [Compound 67], the pIC50 was 5.59. `O[C@H]1CC[C@H](Nc2cc(-c3cccc(NCC4CCNCC4)n3)c(Cl)cn2)CC1` [Compound 119]: the pIC50 was 6.81. For `OCCCN[C@H]1CC[C@H](Nc2cc(-c3cccc(NCc4cccc(F)c4)n3)c(Cl)cn2)CC1` [Compound 200] the value was 8.10; for `O=S1(=O)CCC(N[C@H]2CC[C@H](Nc3cc(-c4nc(NCC5CCOCC5)ccc4Cl)c(Cl)cn3)CC2)CC1` [Compound 348, 3,5′-dichloro-N6-((tetrahydro-2H-pyran-4-yl)methyl)-N2′-(trans-4-(1,1-dioxo-tetrahydro-2H-thiopyran-4-ylamino)cyclohexyl)-2,4′-bipyridine-2′,6-diamine], 8.70; for `N[C@H]1CC[C@H](Nc2cc(-c3nc(NCC4CCOCC4)c(Cl)cc3Cl)c(Cl)cn2)CC1` [Compound 266, N2′-(trans-4-aminocyclohexyl)-3,5,5′-trichloro-N6-((tetrahydro-2H-pyran-4-yl)methyl)-2,4′-bipyridine-2′,6-diamine], 8.10.

Consider `O[C@H]1CC[C@@H](Nc2cc(-c3cccc(NCc4cccc(F)c4)n3)c(Cl)cn2)CC1` [Compound 182], for which the pIC50 was 7.68. Regarding `CN1CCC(CNc2cc(-c3cccc(NCc4cccc(F)c4)n3)c(Cl)cn2)CC1` [Compound 163], the negative logarithm of the IC50 (pIC50) was 7.89. For `CN(C)[C@H]1CC[C@H](Nc2cc(-c3cccc(NCc4cc(F)cc(F)c4)n3)c(Cl)cn2)CC1` [Compound 198] the value was 8.10; for `OC[C@H]1CC[C@H](Nc2cc(-c3cccc(NCc4cccc(F)c4)n3)c(Cl)cn2)CC1` [Compound 181], 8.10; for `N[C@H]1CCCC[C@H]1Nc1cc(-c2cccc(NCc3cccc(F)c3)n2)c(Cl)cn1` [Compound 153], 5.81. For `Clc1cnc(N[C@H]2CCCNC2)cc1-c1cccc(NCC2CCCCC2)n1` [Compound 95] the value was 5.71; for `NC[C@H]1CC[C@H](Nc2cc(-c3cccc(NCc4cccc(OC(F)F)c4)n3)c(Cl)cn2)CC1` [Compound 64], 7.26.

In turn, `OCCCCNc1cc(-c2cccc(NCc3cccc(F)c3)n2)c(Cl)cn1` [Compound 186] showed a pIC50 of 8.10. For `N[C@H]1CC[C@H](Nc2cc(-c3cccc(NCc4cccc(C(F)(F)F)c4)n3)c(Cl)cn2)CC1` [Compound 47] the value was 8.10; for `N[C@H]1CC[C@H](Nc2cc(-c3cccc(NC[C@H]4CCCO4)n3)c(Cl)cn2)CC1` [Compound 104], 6.85.

`O[C@H]1CC[C@H](Nc2cc(-c3cccc(NCC4COCCO4)n3)c(Cl)cn2)CC1` (stereo partly shown) [Compound 135]: the pIC50 was 6.85. The compound `OCCCNc1cc(-c2cccc(NCc3cccc(F)c3)n2)c(Cl)cn1` [Compound 146] had a negative-log IC50 (pIC50) of 8.10. For `N[C@H]1CC[C@H](Nc2cc(-c3nc(NCC4CCOCC4)ccc3Cl)c(Cl)cn2)CC1` [Compound 253, N2′-(trans-4-aminocyclohexyl)-3,5′-dichloro-N6-((tetrahydro-2H-pyran-4-yl)methyl)-2,4′-bipyridine-2′,6-diamine] the value was 8.10; for `NC[C@H]1CC[C@H](Nc2cc(-c3cccc(NCc4ccncc4)n3)c(Cl)cn2)CC1` [Compound 60], 8.10; for `CC(=O)N1CCC[C@H](CNc2cccc(-c3ccnc(N[C@H]4CC[C@H](N)CC4)c3)n2)C1` [Compound 216, 1-((R)-3-((2′-(trans-4-aminocyclohexylamino)-2,4′-bipyridin-6-yl-amino)methyl)piperidin-1-yl)ethanone], 6.86. Compound `O[C@H]1CC[C@H](Nc2cc(-c3cnc(Cl)c(NCC4CCOCC4)n3)c(Cl)cn2)CC1` [Compound 222, trans-4-(5-chloro-4-(5-chloro-6-((tetrahydro-2H-pyran-4-yl)methyl)aminopyrazin-2-yl)pyridin-2-yl-amino)cyclohexanol] had a pIC50 of 8.10. For `COC[C@@H](C)N[C@H]1CC[C@H](Nc2cc(-c3nc(NCC4CCCCO4)ccc3Cl)c(Cl)cn2)CC1` (stereo in doubt) [Compound 325, 3,5′-dichloro-N2′-(trans-4-((R)-1-methoxypropan-2-yl-amino)cyclohexyl)-N6-(((R)-tetrahydro-2H-pyran-2-yl)methyl)-2,4′-bipyridine-2′,6-diamine] the value was 8.00; for `CN1CCN([C@H]2CC[C@H](Nc3cc(-c4cccc(NCc5cccc(F)c5)n4)c(Cl)cn3)CC2)CC1` [Compound 158], 7.96. For `OCCCNc1cc(-c2cccc(NCc3cc(F)cc(F)c3)n2)c(Cl)cn1` [Compound 189] the value was 8.10; for `COCCN[C@H]1CC[C@H](Nc2cc(-c3nc(NCC4CCOCC4)ccc3Cl)c(Cl)cn2)CC1` [Compound 258, 3,5′-dichloro-N2′-(trans-4-(2-methoxyethylamino)cyclohexyl)-N6-((tetrahydro-2H-pyran-4-yl)methyl)-2,4′-bipyridine-2′,6-diamine], 8.10. For `N[C@H]1CC[C@H](Nc2cc(-c3cc(C(F)(F)F)cc(NCc4cccc(F)c4)n3)ccn2)CC1` [Compound 11, N2′-(trans-4-aminocyclohexyl)-N6-(3-fluorobenzyl)-4-(trifluoromethyl)-2,4′-bipyridine-2′,6-diamine] the value was 6.88; for `CCS(=O)(=O)N[C@H]1CC[C@H](Nc2cc(-c3cccc(NCc4cccc(F)c4)n3)c(Cl)cn2)CC1` [Compound 78], 7.62. For the compound `Fc1cc(F)cc(CNc2cccc(-c3cc(NC4CCNCC4)ncc3Cl)n2)c1` [Compound 71], the pIC50 is 7.56. For `CC(C)Nc1cc(-c2cccc(NCc3cccc(F)c3)n2)c(Cl)cn1` [Compound 172] the value was 7.82; for `CS(=O)(=O)CCN[C@H]1CC[C@H](Nc2cc(-c3ccc(F)c(NCC4CCOCC4)n3)c(Cl)cn2)CC1` [Compound 326], 9.31; for `Clc1cnc(N[C@@H]2CCCNC2)cc1-c1cccc(NCC2CCOCC2)n1` [Compound 90], 5.53. For `CN1CCC[C@H]1C(=O)N1CCC(Nc2cc(-c3cccc(NCc4cccc(F)c4)n3)c(Cl)cn2)CC1` [Compound 86] the value was 7.09; for `CC(=O)N1CCC[C@H](CNc2cccc(-c3cc(N[C@H]4CC[C@H](N)CC4)ncc3Cl)n2)C1` [Compound 215, 1-((R)-3-((2′-(trans-4-aminocyclohexylamino)-5′-chloro-2,4′-bipyridin-6-yl-amino)methyl)piperidin-1-yl)ethanone], 7.18; for `Clc1cnc(N[C@H]2CC[C@H](NC[C@H]3CCCO3)CC2)cc1-c1cccc(NCC2CCOCC2)n1` [Compound 277], 8.10. For `COCCN(C)[C@H]1CC[C@H](Nc2cc(-c3cccc(NCC4CCOCC4)n3)c(Cl)cn2)CC1` [Compound 279] the value was 7.88.

With `N[C@H]1CC[C@H](Nc2cc(-c3cccc(NCc4ccc(OC(F)(F)F)cc4)n3)c(Cl)cn2)CC1` [Compound 54], the negative-log IC50 (pIC50) is 7.64. In turn, `COCCN[C@H]1CC[C@H](Nc2cc(-c3nc(NCC4CCOCC4)ccc3Cl)ccn2)CC1` [Compound 274] gave a negative-log IC50 (pIC50) of 7.42. For `Fc1cccc(CNc2cccc(-c3cc(NC4CCOCC4)ncc3Cl)n2)c1` [Compound 142] the value was 7.59. For `Cc1ccc(CNc2cccc(-c3cc(N[C@H]4CC[C@H](N)CC4)ncc3Cl)n2)cc1` [Compound 51] the value was 7.76; for `Clc1cccc(CNc2cccc(-c3cc(NC4CCNCC4)ncc3Cl)n2)c1` [Compound 73], 7.45. For `N[C@H]1CC[C@H](Nc2cc(-c3cncc(NC[C@H]4CCCOC4)n3)c(Cl)cn2)CC1` [Compound 261] the value was 8.10.

With `Fc1ccc(-c2cc(N[C@H]3CC[C@H](NCC4CCO4)CC3)ncc2Cl)nc1NCC1CCOCC1` (stereo partly drawn) [Compound 324, 5′-chloro-5-fluoro-N2′-(trans-4-(oxetan-2-yl-methylamino)cyclohexyl)-N6-((tetrahydro-2H-pyran-4-yl)methyl)-2,4′-bipyridine-2′,6-diamine], the pIC50 is 8.70.

`O[C@@H]1CC[C@H](Nc2cc(-c3cccc(NCc4cccc(F)c4)n3)c(Cl)cn2)C1` [Compound 184] gave a pIC50 of 8.04. For `CCCN(CCC)[C@H]1CC[C@H](Nc2cc(-c3ccc(F)c(NCC4(C#N)CCOCC4)n3)c(Cl)cn2)CC1` [Compound 343] the value was 9.51; for `O[C@H]1CC[C@H](Nc2cc(-c3cncc(NC[C@H]4CCCOC4)n3)c(Cl)cn2)CC1` [Compound 263], 8.10; for `N#CC1(CNc2cccc(-c3cc(N[C@H]4CC[C@H](O)CC4)ncc3Cl)n2)CCOCC1` [Compound 359, 4-((5′-chloro-2′-((1r,4r)-4-hydroxycyclohexylamino)-2,4′-bipyridin-6-ylamino)methyl)tetrahydro-2H-pyran-4-carbonitrile], 9.62. For `Fc1cccc(CNc2cccc(-c3cc(NC4CCCC4)ncc3Cl)n2)c1` [Compound 140] the value was 7.90; for `CCN[C@H]1CC[C@H](Nc2cc(-c3cccc(NCC4(C#N)CCOCC4)n3)c(Cl)cn2)CC1` [Compound 360, 4-((5′-chloro-2′-((1r,4r)-4-(ethylamino)cyclohexylamino)-2,4′-bipyridin-6-ylamino)methyl)tetrahydro-2H-pyran-4-carbonitrile], 9.55. For `CN(Cc1ccccc1)c1cccc(-c2cc(N[C@H]3CC[C@H](N)CC3)ncc2Cl)n1` [Compound 76] the value was 7.96. In turn, `N[C@H]1CC[C@H](Nc2cc(-c3cccc(NCc4ccccc4F)n3)c(Cl)cn2)CC1` [Compound 41] showed a pIC50 of 7.89. On to `N[C@H]1CC[C@H](Nc2cc(-c3cncc(NCC4CCCOC4)n3)c(Cl)cn2)CC1` (stereo partly shown) [Compound 228], for which the pIC50 is 8.10. For `COCCN[C@H]1CC[C@H](Nc2cc(-c3cccc(NCC4CCOCC4)n3)c(Cl)cn2)CC1` [Compound 276] the value was 8.05.
